Consider 38 molecules from patent US5424451A, “Process for preparing aminoalkylcarbamic esters of eseroline” (priority 1992, dated 1995).

Read-outs that look alike come from different tables or passages of the source.

Data set [1] addresses T1, acetylcholinesterase from human red blood cells (Homo sapiens, UniProt P22303).
T1 construct: purchased Sigma Chemical; host or cells: human erythrocyte
As to the kind of experiment: Inhibition of acetylcholinesterase from human erythrocyte (Ellman colorimetric method). It counts as biochemical. Particulars: for Activity against human red blood cells acetylcholinesterase (in words): Table 2 results.

Data set [2] has as its target T2, butyrylcholinesterase from human serum (Homo sapiens, UniProt P06276).
T2 construct: purchased Sigma Chemical; host or cells: human serum
Kind of data set: Inhibition of butyrylcholinesterase from human serum (Ellman colorimetric method). It counts as biochemical.

The target of data set [3] is T3, acetylcholinesterase from electric eel (Electrophorus electricus, UniProt O42275).
T3 construct: purchased Sigma Chemical; host or cells: electric eel
As to the kind of experiment: biochemical.

The next data set in a line: in vivo. To be noted: rat, po.
The mark [4] stands for this setting: Cholinesterase Inhibition IC50, AChE hRBC, contact time 10'.
The mark [5] stands for this setting: contact time 10', read-out: Cholinesterase Inhibition IC50, AChE hRBC.
The mark [6] stands for this setting: Cholinesterase Inhibition IC50, AChE E.eel, contact time 10'.
Setting [7] is: Cholinesterase Inhibition IC50, AChE E.eel, contact time 30'.
The mark [8] stands for this setting: Cholinesterase Inhibition IC50, AChE hRBC, contact time 30'.
The mark [9] stands for this setting: Cholinesterase Inhibition IC50, AChE hRBC, contact time 60'.

T2 sequence (P06276 29-602): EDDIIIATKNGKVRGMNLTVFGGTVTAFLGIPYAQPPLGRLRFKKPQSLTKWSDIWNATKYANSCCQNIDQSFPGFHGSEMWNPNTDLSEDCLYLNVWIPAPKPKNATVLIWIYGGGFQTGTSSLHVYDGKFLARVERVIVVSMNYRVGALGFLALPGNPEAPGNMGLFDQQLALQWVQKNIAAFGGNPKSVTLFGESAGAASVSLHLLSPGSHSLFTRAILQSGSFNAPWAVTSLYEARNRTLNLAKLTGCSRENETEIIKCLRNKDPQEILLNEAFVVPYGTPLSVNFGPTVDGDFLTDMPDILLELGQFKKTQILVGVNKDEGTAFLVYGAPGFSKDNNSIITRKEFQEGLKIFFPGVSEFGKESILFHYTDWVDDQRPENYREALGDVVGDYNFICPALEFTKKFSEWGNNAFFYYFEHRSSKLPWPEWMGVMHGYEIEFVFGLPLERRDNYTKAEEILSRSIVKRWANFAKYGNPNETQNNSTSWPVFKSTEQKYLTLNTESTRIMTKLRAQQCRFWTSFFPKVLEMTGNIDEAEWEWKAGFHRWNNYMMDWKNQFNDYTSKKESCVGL
T3 sequence (O42275 24-633): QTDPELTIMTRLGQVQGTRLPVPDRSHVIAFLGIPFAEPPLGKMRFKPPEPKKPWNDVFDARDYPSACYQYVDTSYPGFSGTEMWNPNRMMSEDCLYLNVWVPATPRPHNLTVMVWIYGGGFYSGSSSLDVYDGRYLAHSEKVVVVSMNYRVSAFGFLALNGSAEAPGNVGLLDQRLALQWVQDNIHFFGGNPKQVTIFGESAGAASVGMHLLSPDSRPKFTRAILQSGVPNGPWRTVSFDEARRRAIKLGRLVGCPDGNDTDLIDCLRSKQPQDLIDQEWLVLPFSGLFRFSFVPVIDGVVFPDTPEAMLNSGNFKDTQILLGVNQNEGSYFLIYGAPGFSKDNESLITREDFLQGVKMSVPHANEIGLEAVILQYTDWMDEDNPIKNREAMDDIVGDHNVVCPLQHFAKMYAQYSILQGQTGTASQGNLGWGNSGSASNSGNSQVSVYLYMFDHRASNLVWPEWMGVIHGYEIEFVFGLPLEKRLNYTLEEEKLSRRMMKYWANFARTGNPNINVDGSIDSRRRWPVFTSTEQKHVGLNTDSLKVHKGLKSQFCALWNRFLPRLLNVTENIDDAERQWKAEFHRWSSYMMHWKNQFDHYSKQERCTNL
T1 sequence (P22303 32-617 isoform P22303-2 limits assumed): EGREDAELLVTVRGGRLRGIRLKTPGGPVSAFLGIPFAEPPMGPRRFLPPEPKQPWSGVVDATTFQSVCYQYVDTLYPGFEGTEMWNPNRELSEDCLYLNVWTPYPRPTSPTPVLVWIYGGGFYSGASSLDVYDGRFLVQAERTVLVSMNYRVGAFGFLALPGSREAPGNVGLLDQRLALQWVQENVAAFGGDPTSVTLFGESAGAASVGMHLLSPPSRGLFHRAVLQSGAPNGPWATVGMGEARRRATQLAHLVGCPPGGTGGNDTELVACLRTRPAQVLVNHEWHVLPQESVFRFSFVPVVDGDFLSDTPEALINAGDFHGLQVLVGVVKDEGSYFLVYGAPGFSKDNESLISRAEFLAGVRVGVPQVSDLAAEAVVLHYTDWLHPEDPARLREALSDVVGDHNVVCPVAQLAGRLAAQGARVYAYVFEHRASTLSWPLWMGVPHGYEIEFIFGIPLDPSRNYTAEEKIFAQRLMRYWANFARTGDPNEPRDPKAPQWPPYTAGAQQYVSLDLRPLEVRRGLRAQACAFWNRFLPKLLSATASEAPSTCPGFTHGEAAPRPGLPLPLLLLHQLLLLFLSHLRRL

Take `C[C@@H]1CN(CCCCCCCCNC(=O)Oc2ccc3c(c2)[C@]2(C)CCN(C)[C@@H]2N3C)C[C@@H](C)O1` [MF 276, 8-(trans-2,6-dimethyl)morpholinyloctylcarbamoyl eseroline]: the “Activity against human red blood cells acetylcholinesterase (in words)” value (“Activity” for short) in data set [1] was “Particularly active”. For the same molecule, the IC50 in data set [1] (read-out: Cholinesterase Inhibition IC50, AChE hRBC, contact time 10') is 70 nM; in data set [2] (read-out: Cholinesterase Inhibition IC50, BuChE hserum, contact time 10'), 250 nM.

The molecule `CCCCN1CCN(CCCCCCCCNC(=O)Oc2ccc3c(c2)[C@]2(C)CCN(C)[C@@H]2N3C)CC1` [MF 273] showed an IC50 in data set [1] (setting [4]) of 30 nM. In data set [1], the “Activity” value is “Particularly active”.

Consider `CN1CC[C@@]2(C)c3cc(OC(=O)NCCCN4CCOCC4)ccc3N(C)[C@@H]12` [MF 218, N-morpholinylpropylcarbamoyleseroline], for which the IC50 in data set [1] (setting [5]) worked out at 3800 nM.

In data set [1] (setting [4]), `CN1CCN(CCCCCCCCCCNC(=O)Oc2ccc3c(c2)[C@]2(C)CCN(C)[C@@H]2N3C)CC1` [MF 255] displayed an IC50 of 50 nM. The “Activity” value in data set [1] is on record as “Particularly active”.

Turning to `CN1CCN(CCCCCCCCNC(=O)Oc2ccc3c(c2)[C@]2(C)CCN(C)[C@@H]2N3C)CC1` [MF 230, N-(N-methylpiperazinyloctyl)carbamoyleseroline], the IC50 in data set [3] (setting [6]) was 200 nM; in data set [3] (setting [7]), 80 nM; in data set [1] (setting [4]) it was 30 nM; in data set [1] (setting [8]) it was 50 nM. For the same molecule, in data set [1], the “Activity” value is “Particularly active”. The molecule also returned an LD50 in the data set “in vivo” of 27.7 mg/kg.

In turn, `CN1CCN(C(=O)CCCCCNC(=O)Oc2ccc3c(c2)[C@]2(C)CCN(C)[C@@H]2N3C)CC1` [MF 245] had an IC50 in data set [1] (setting [4]) of 5500 nM.

The molecule `COCCN(CCCCCCCCNC(=O)Oc1ccc2c(c1)[C@]1(C)CCN(C)[C@@H]1N2C)CCOC` [MF 271] returned an IC50 in data set [1] (setting [4]) of 50 nM. In data set [1], the “Activity” value is given as “Particularly active”.

Molecule `CCCN1CCN(CCCCCCCCNC(=O)Oc2ccc3c(c2)[C@]2(C)CCN(C)[C@@H]2N3C)CC1` [MF 261] gave an IC50 in data set [1] (setting [4]) of 20 nM. Also, the “Activity” value in data set [1] is on record as “Particularly active”.

In data set [1] (setting [4]), `CN1CC[C@@]2(C)c3cc(OC(=O)NCCCCCCCCN4CCC5(CC4)OCCO5)ccc3N(C)[C@@H]12` [MF 265] showed an IC50 of 80 nM. Besides, the “Activity” value in data set [1] is “Particularly active”.

In data set [1] (setting [4]), `CN1CC[C@@]2(C)c3cc(OC(=O)NCCCCCCCCCCN4CCCC4)ccc3N(C)[C@@H]12` [MF 253] came in with an IC50 of 30 nM. Further, the “Activity” value in data set [1] is on record as “Particularly active”.

With `CN1CC[C@@]2(C)c3cc(OC(=O)NCCCCCCCCCN4CCOCC4)ccc3N(C)[C@@H]12` [MF 233], the IC50 in data set [3] (read-out: Cholinesterase Inhibition IC50, AChE E.eel, contact time 10') is 140 nM; in data set [1] (setting [5]) it was 60 nM. Besides, the “Activity” value in data set [1] is “Particularly active”.

As for `CC(=O)N1CCN(CCCCCCCCNC(=O)Oc2ccc3c(c2)[C@]2(C)CCN(C)[C@@H]2N3C)CC1` [MF 240], the IC50 in data set [1] (setting [4]) amounted to 240 nM.

Regarding `CCCN(CCC)CCCCCCCCCCCCNC(=O)Oc1ccc2c(c1)[C@]1(C)CCN(C)[C@@H]1N2C` [MF 258], in data set [1] (setting [4]), 1000 nM corresponded to half-maximal inhibition (IC50).

Consider `CC(C)CN1CCN(CCCCCCCCNC(=O)Oc2ccc3c(c2)[C@]2(C)CCN(C)[C@@H]2N3C)CC1` [MF 270], for which the IC50 in data set [1] (setting [4]) turned out to be 60 nM.

Take `CN(CCCCCCCCN1CCOCC1)C(=O)Oc1ccc2c(c1)[C@]1(C)CCN(C)[C@@H]1N2C` [MF 243, N-(morpholinyloctyl),N-methyl carbamoyl eseroline]: 7400 nM corresponded to half-maximal inhibition in data set [1] (setting [4]) (IC50).

Consider `CN1CC[C@@]2(C)c3cc(OC(=O)NCCCCCCCCCCN4CCOCC4)ccc3N(C)[C@@H]12` [MF 231], for which the IC50 in data set [3] (setting [6]) stood at 60 nM; in data set [1] (setting [5]), 40 nM. Further, the “Activity” value in data set [1] is recorded as “Particularly active”. Also, the LD50 in the data set “in vivo” amounted to 40 mg/kg.

Regarding `CN1CC[C@@]2(C)c3cc(OC(=O)NCCCCCCCCN4CCSCC4)ccc3N(C)[C@@H]12` [MF 239], the IC50 in data set [1] (setting [4]) stood at 50 nM. In addition, in data set [1], the “Activity” value is recorded as “Particularly active”. This molecule gave an LD50 in the data set “in vivo” of 23.8 mg/kg.

On to `CCCN(CCC)CCCCCCCCNC(=O)Oc1ccc2c(c1)[C@]1(C)CCN(C)[C@@H]1N2C` [MF 256], for which inhibition in data set [1] (setting [4]) was half-maximal at 80 nM (IC50). In data set [1], the “Activity” value is “Particularly active”. This molecule also returned an LD50 in “in vivo” of 18.3 mg/kg.

`CC(=O)N1CCN(CCNC(=O)Oc2ccc3c(c2)[C@]2(C)CCN(C)[C@@H]2N3C)CC1` [MF 246] yielded an IC50 in data set [1] (setting [4]) of 20000 nM.

On to `CN1CC[C@@]2(C)c3cc(OC(=O)NCCCCCCCCN4CCCC4)ccc3N(C)[C@@H]12` [MF 251, N-pyrrolidinyloctylcarbamoyleseroline], for which the midpoint of inhibition in data set [1] (setting [4]), the IC50, lay at 70 nM. For the same molecule, in data set [1], the “Activity” value is reported as “Particularly active”.

Take `CN1CC[C@@]2(C)c3cc(OC(=O)NCCN4CCOCC4)ccc3N(C)[C@@H]12` [MF 214, N-morpholinylethylcarbamoyleseroline]: the IC50 in data set [1] (setting [8]) was found to be 140 nM; in data set [1] (setting [9]), 110 nM; in data set [1] (setting [5]), 700 nM; in data set [2], 4100 nM.

As for `CCN(CC)CCCCCCCCCCCCNC(=O)Oc1ccc2c(c1)[C@]1(C)CCN(C)[C@@H]1N2C` [MF 254], half-maximal inhibition in data set [1] (setting [4]) (IC50) was put at 50 nM. In addition, the “Activity” value in data set [1] is given as “Particularly active”.

In data set [1] (setting [4]), `CN1CC[C@@]2(C)c3cc(OC(=O)NCCCCCCCCN4CCN(Cc5ccccc5)CC4)ccc3N(C)[C@@H]12` [MF 266] registered an IC50 of 70 nM. For the same molecule, the “Activity” value in data set [1] is “Particularly active”.

As for `CN1CC[C@@]2(C)c3cc(OC(=O)NCCCCCCCCN4CC=CC4)ccc3N(C)[C@@H]12` [MF 250], the midpoint of inhibition in data set [1] (setting [4]), the IC50, lay at 30 nM.

For `CC(=O)N1CCN(CCCCCCCCCCCCNC(=O)Oc2ccc3c(c2)[C@]2(C)CCN(C)[C@@H]2N3C)CC1` [MF 275], 50 nM corresponded to half-maximal inhibition in data set [1] (setting [4]) (IC50).

In turn, `CCN(CC)CCCCCCCCCCNC(=O)Oc1ccc2c(c1)[C@]1(C)CCN(C)[C@@H]1N2C` [MF 247] gave an IC50 in data set [1] (setting [4]) of 17 nM. The “Activity” value in data set [1] is “Particularly active”.

As to `C[C@@H]1CN(CCCCCCCCNC(=O)Oc2ccc3c(c2)[C@]2(C)CCN(C)[C@@H]2N3C)C[C@H](C)O1` [MF 268, 8-(cis-2,6-dimethylmorpholinyl)octylcarbamoyl eseroline], the values for the IC50 in data set [1] (setting [4]) and in data set [2] were 70 nM and 180 nM, respectively. Further, the “Activity” value in data set [1] is recorded as “Particularly active”. Besides, the LD50 in the data set “in vivo” was determined as 56 mg/kg.

In turn, `CN(CCCCCCCCNC(=O)Oc1ccc2c(c1)[C@]1(C)CCN(C)[C@@H]1N2C)c1ccccc1` [MF 263] returned an IC50 in data set [1] (setting [4]) of 50 nM. For the same molecule, the “Activity” value in data set [1] is “Particularly active”.

Turning to `CN1CC[C@@]2(C)c3cc(OC(=O)NCCCCCCCCN4CCCCC4)ccc3N(C)[C@@H]12` [MF 241, N-piperidinyloctylcarbamoyleseroline], inhibition in data set [1] (setting [4]) was half-maximal at 100 nM (IC50). In addition, in data set [1], the “Activity” value is given as “Particularly active”.

`CC(=O)N1CCN(CCCCCCCCCCNC(=O)Oc2ccc3c(c2)[C@]2(C)CCN(C)[C@@H]2N3C)CC1` [MF 252] came in with an IC50 in data set [1] (setting [4]) of 27 nM. For the same molecule, in data set [1], the “Activity” value is listed as “Particularly active”.

Turning to `CCCN(CCC)CCCCCCCCCCNC(=O)Oc1ccc2c(c1)[C@]1(C)CCN(C)[C@@H]1N2C` [MF 257], in data set [1] (setting [4]), the midpoint of inhibition, the IC50, lay at 30 nM. For the same molecule, in data set [1], the “Activity” value was “Particularly active”.

`CN1CC[C@@]2(C)c3cc(OC(=O)NCCCCCCCCCCCN4CCOCC4)ccc3N(C)[C@@H]12` [MF 232]: the IC50 amounted to 70 nM in data set [3] (setting [6]) and 40 nM in data set [1] (setting [5]).

In turn, `CCN1CCN(CCCCCCCCNC(=O)Oc2ccc3c(c2)[C@]2(C)CCN(C)[C@@H]2N3C)CC1` [MF 262] displayed an IC50 in data set [1] (setting [4]) of 30 nM. For the same molecule, the “Activity” value in data set [1] is recorded as “Particularly active”.

Turning to `CN1CC[C@@]2(C)c3cc(OC(=O)NCCCCCCCCCCCCN4CCCCC4)ccc3N(C)[C@@H]12` [MF 249], in data set [1] (setting [4]), the IC50 came to 50 nM. In addition, the “Activity” value in data set [1] was “Particularly active”.

As for `CN1CCN(CCCCCCCCCCCCNC(=O)Oc2ccc3c(c2)[C@]2(C)CCN(C)[C@@H]2N3C)CC1` [MF 229], the figures for the half-inhibitory concentration (IC50) in data set [3] (setting [6]) and in data set [1] (setting [4]) were 40 nM and 60 nM, respectively. Moreover, in data set [1], the “Activity” value is given as “Particularly active”.

`CCN(CC)CCCCCCCCNC(=O)Oc1ccc2c(c1)[C@]1(C)CCN(C)[C@@H]1N2C` [MF 237]: the IC50 stood at 340 nM in data set [3] (setting [6]); 190 nM in data set [3] (setting [7]); 120 nM in data set [3] (Cholinesterase Inhibition IC50, AChE E.eel, contact time 60'); 110 nM in data set [1] (setting [4]); 70 nM in data set [1] (setting [8]); 30 nM in data set [1] (setting [9]). In addition, the “Activity” value in data set [1] is “Particularly active”.

In data set [1] (setting [4]), `CN1CC[C@@]2(C)c3cc(OC(=O)NCCCCCCCC(=O)N4CCOCC4)ccc3N(C)[C@@H]12` [MF 269] returned an IC50 of 120 nM.

For `CN1CC[C@@]2(C)c3cc(OC(=O)NCCCCCCCCCCN4CCCCC4)ccc3N(C)[C@@H]12` [MF 248], the IC50 in data set [1] (setting [4]) worked out at 19 nM. In addition, the “Activity” value in data set [1] was “Particularly active”. Also, the LD50 in the data set “in vivo” stood at 15.3 mg/kg.
